Assay results taken from PubChem BioAssay (NCI).
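Each compound was tested at five concentrations against cells in 96-well plates for 48 hours. TGI: concentration producing complete growth inhibition.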

Legend:
Test in all cases: NCI tumour cell line growth inhibition, 48 h
A549 NSCLC = tested on: A549 NSCLC
HCT-15 colon = tested on: HCT-15 colon
KM12 colon = tested on: KM12 colon
MALME-3M melanoma = tested on: MALME-3M melanoma
OVCAR-5 ovarian = tested on: OVCAR-5 ovarian
SF-268 CNS = tested on: SF-268 CNS
SK-MEL-2 melanoma = tested on: SK-MEL-2 melanoma
UO-31 renal = tested on: UO-31 renal
ACHN renal = tested on: ACHN renal
TK-10 renal = tested on: TK-10 renal

SMILES	TGI (A549 NSCLC) [µM]	TGI (HCT-15 colon) [µM]	TGI (KM12 colon) [µM]	TGI (MALME-3M melanoma) [µM]	TGI (OVCAR-5 ovarian) [µM]	TGI (SF-268 CNS) [µM]	TGI (SK-MEL-2 melanoma) [µM]	TGI (UO-31 renal) [µM]	TGI (ACHN renal) [µM]	TGI (TK-10 renal) [µM]
O=S(=O)(O)c1cc(S(=O)(=O)O)c2cc(N=Nc3ccc(N=Nc4ccc(/C=C/c5ccc(N=[N+]([O-])c6ccc(/C=C/c7ccc(N=Nc8ccc(N=Nc9ccc%10cc(S(=O)(=O)O)cc(S(=O)(=O)O)c%10c9)cc8)cc7S(=O)(=O)O)c(S(=O)(=O)O)c6)cc5S(=O)(=O)O)c(S(=O)(=O)O)c4)cc3)ccc2c1	> 100	> 100	> 100	> 100	> 100	> 100	> 100	> 100		
Cc1ccc(/C=c2\c(=O)[nH]c3nc4ccccc4c(=O)n23)cc1	> 100	> 100	> 100	> 100	> 100	> 100	> 100	> 100	> 100	> 100
N=C1C=CC(=C(c2ccc(N)cc2)c2ccc(N)cc2)C=C1	32.1	53.3	13.7	13.3	50.3	14.9	10.4	29.2	31.2	28.1
CCOc1ccc2c(c1)C(/C(C(Cl)=C(Cl)Cl)=[N+](/[O-])OC(=O)c1ccccc1)=N2	> 100	> 100	> 100	> 100	> 100	> 100	> 100	> 100	> 100	> 100
NC(=Nc1ccccc1)N/N=C/c1c[nH]c2ccccc12	15.4	10.1	5.28	3.74	15	15	4.95	12.9	16.1	18.9
COc1cc(C2c3cccc4cccc(c34)C3CCC(=O)N32)cc(OC)c1O (centres undefined)	> 50	> 50	> 50		> 50		> 50	> 50	> 50	
OCc1ccc2c(c1)CC1(Cc3ccccc3C1)C2	71.2	> 100	57.3	29.4		40.9		29.1	57.7	61.5
Cc1cc(C)[n+]2c(c1)C=CC2	> 100		> 100	8.57	> 100	> 100	93.8	> 100	> 100	> 100
O=C(Nc1ccc(Br)cc1)C(=O)C(C(=O)c1ccc(Cl)c(Cl)c1)C1OC(=O)c2ccccc21 (centres undefined)	46	53.7	31.8	24.1	52.3	21.4		43.2	35.5	51.6
C=C1c2c(n(S(=O)(=O)c3ccccc3)c3ccccc23)[C@@]2(C(=O)OC)CC3C=CC2N1C3	> 100	> 100	> 100	> 100	> 100	> 100	> 100		> 100	> 100
C/C(=N\N=C(N)N)C(CN1CCOCC1)C(c1ccccc1)c1c(O)c2ccccc2oc1=O (centres undefined)	> 100	> 100	> 100	> 100	> 100	> 100	> 100		> 100	> 100
